This is an account of results in patent publication US20260306421A1, “SYSTEMS AND METHODS FOR TRANSDERMAN PATCH DELIVERY” (VITAMAX PATCH WHOLESALER LLC, priority 2022, published 2026).

Series [1] can be described thus: Chemical stability of cholecalciferol and cholecalciferol phosphate disodium in donor, extraction and receiver fluids. It counts as physicochemical. As to conditions: for chemical stability: 37° C., 24 h. How it is done:
To assess the chemical stability of the test agents in the liquids in which they were to be dissolved for the skin permeation experiments, 1 mg/mL solutions of cholecalciferol and cholecalciferol phosphate disodium in propylene glycol (PG) were prepared and incubated at 37° C. for 24 h. In addition, 100 μg/mL cholecalciferol in 50:50 PG:ethanol mixture, 100 μg/mL cholecalciferol phosphate disodium in 90:10 methanol:water mixture as well as and in 50% PG 40% Methanol: 10% water pH 3.2 (90:10) were also incubated at 37° C. for 24 hours.

Series [2] can be described thus: Cholecalciferol phosphate disodium patch release. It counts as in vitro ADME. Conditions: control solution in PG, 24 h. Here is the method: The patch was produced by mixing 82.9 μL of the adhesive, 1.92 μL of PG and the 4 mg of cholecalciferol phosphate disodium (Table 39). The patch formulation was cast into an in-house rectangular tray measuring 10 by 10 cm. The mixture was left to cure for 3-4 h. The laminate was then added to the adhesive and circles of 34 mm diameter were cut using a dye cutting machine and the release of the cholecalciferol was assessed using the Franz diffusion cells fitted with a nylon membrane over 24 h. A nylon membrane (0.20 μm) was glued to the receiver chamber and no donor chamber was employed to allow the patch to be placed directly on the surface of the nylon membrane. A cholecalciferol phosphate disodium saturated PG solution was used as a comparator with the standard Franz cell set-up previously described. The receiver fluid was 80% PG 20% water for both release testing from the solution and the patch.

Series [3] in a line: Solubility of cholecalciferol and cholecalciferol phosphate (disodium, acid). It counts as physicochemical. How it is done: Aliquots of cholecalciferol, cholecalciferol phosphate disodium, and cholecalciferol phosphate acid were added to a range of solvents including propylene glycol (PG), distilled water, methanol, ethyl acetate, ethanol, n-hexane, and the visual solubility was determined. A precise assessment of the saturation solubility was for some of the solvent systems was made using high-performance liquid chromatography (HPLC). In the HPLC solubility studies, an excess of each solute was added into 2 mL of each test solvent. The solutions were left stirring overnight at room temperature, (RT), 22° C. The saturation of the solutions was confirmed by the visual appearance of crystals and the drug suspensions were filtered through 0.2 μm cellulose acetate syringe filters, diluted with excess of mobile phase, and the solute concentration of each sample was assessed using HPLC.

Regarding cholecalciferol phosphate disodium, the chemical stability is 86±5.7% in series [1] (PG), 98±1.6% in series [1] (extraction fluid 90:10 methanol:water) and 71±2.7% in series [1] (receiver fluid 50:50 PG:mobile phase (90:10 methanol:water pH 3.2)). In addition, the “chemical stability (in words)” value in series [1] (conclusions) is recorded as “indication of chemical instability”. For the same substance, the “active release from PG solution, percent of applied active” value in series [2] was determined as 17%. For the same substance, the “active release from PG solution” value in series [2] (nylon membrane) was 512±17 μg/cm^2. In addition, the Solubility was 2670 ± 310 µg/mL in series [3] (solvent PG) and 340 ± 610 µg/mL in series [3] (solvent PG + 5% ethanol).

The term Solubility denotes how much of the substance goes into solution per volume.
